Experimental data: PMC10099813, “Stafiba: A STAT5‐Selective Small‐Molecule Inhibitor” (Chembiochem, 2022)

Assays:
[1] = molecular target: T1, STAT5a (Homo sapiens, UniProt P42229); assay: Competitive fluorescence polarization (FP) binding assay, STAT5a SH2 domain; conditions: FP assay; for Ki: Ki calculated from IC50 (n=3) via published equation; for Ki / IC50: 2 % DMSO (10 % DMSO for 10); for IC50: n=3 unless stated; for inhibition at 100 µM: the highest concentration tested, read-out: maximum inhibition at 100 µM (STAT5a)
T1 sequence (P42229 1-794): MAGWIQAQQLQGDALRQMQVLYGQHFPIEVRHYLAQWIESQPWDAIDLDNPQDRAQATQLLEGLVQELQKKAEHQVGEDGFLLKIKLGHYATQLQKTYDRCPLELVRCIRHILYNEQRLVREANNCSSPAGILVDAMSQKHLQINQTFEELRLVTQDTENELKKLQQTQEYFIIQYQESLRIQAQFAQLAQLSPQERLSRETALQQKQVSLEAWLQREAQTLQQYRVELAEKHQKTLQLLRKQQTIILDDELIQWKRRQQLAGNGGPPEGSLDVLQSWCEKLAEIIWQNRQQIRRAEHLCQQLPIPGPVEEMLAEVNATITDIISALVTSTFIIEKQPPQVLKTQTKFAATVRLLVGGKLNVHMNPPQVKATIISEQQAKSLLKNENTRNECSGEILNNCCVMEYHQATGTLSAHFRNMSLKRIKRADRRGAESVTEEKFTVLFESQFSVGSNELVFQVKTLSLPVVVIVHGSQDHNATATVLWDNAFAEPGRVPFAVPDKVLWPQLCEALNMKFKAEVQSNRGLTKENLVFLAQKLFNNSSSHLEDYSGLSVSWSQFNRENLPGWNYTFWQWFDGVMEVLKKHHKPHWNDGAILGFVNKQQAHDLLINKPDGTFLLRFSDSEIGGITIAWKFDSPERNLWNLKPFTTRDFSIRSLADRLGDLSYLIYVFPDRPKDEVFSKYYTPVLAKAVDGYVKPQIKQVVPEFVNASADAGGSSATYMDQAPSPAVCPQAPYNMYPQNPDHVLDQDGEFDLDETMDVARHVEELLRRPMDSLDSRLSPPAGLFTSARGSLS
Protocol: (§1) Fluorescence polarization assays: Competitive binding assays based on fluorescence polarization were carried out essentially as previously described.[[4a]] Unless stated otherwise, final concentrations of the buffer components were: 10 mM Tris (pH 8.0), 50 mM NaCl, 1 mM EDTA, 1 mM DTT, 0.1 % (v/v) Nonidet P‐40 substitute, and 2 % DMSO. Proteins were used at concentrations which reflect the Kd values of the interactions between the fluoropeptide and the protein preparations. Protein concentrations used for activity analysis of compound 5 were 91 nM for STAT1, 107 nM for STAT3, 28 nM for STAT4, 122 nM for STAT5a, 56 nM for STAT5b and 101 nM for STAT6. Protein concentrations used for activity analysis of AC‐4‐130 were 103 nM for STAT5a and 62 nM for STAT5b. […] Final concentration of all fluorescent‐labelled peptides was 10 nM. The following peptides were used in assays: 5‐carboxyfluorescein‐GpYDKPHVL for STAT1; 5‐carboxyfluorescein‐GpYLPQTV‐NH2 for STAT3; 5‐carboxyfluorescein‐GpYLPQNID for STAT4; 5‐carboxyfluorescein‐GpYLVLDKW for STAT5a/5b, and 5‐carboxyfluorescein‐GpYVPWQDLI for STAT6. Protein and test compounds were incubated for 1 h prior to addition of the fluorescein‐labeled peptide. Fluorescence polarization was measured after another 60 min using an Infinite F500 plate reader (Tecan). IC50 values were converted to Ki‐values using the published equation.[13]

[2] = molecular target: T2, STAT5b (Homo sapiens, UniProt P51692); assay: Competitive fluorescence polarization (FP) binding assay, STAT5b SH2 domain; conditions: FP assay; for Ki: Ki calculated from IC50 (n=3) via published equation; for Ki / IC50: 2 % DMSO (10 % DMSO for 10); for IC50: n=3
T2 sequence (P51692 1-787): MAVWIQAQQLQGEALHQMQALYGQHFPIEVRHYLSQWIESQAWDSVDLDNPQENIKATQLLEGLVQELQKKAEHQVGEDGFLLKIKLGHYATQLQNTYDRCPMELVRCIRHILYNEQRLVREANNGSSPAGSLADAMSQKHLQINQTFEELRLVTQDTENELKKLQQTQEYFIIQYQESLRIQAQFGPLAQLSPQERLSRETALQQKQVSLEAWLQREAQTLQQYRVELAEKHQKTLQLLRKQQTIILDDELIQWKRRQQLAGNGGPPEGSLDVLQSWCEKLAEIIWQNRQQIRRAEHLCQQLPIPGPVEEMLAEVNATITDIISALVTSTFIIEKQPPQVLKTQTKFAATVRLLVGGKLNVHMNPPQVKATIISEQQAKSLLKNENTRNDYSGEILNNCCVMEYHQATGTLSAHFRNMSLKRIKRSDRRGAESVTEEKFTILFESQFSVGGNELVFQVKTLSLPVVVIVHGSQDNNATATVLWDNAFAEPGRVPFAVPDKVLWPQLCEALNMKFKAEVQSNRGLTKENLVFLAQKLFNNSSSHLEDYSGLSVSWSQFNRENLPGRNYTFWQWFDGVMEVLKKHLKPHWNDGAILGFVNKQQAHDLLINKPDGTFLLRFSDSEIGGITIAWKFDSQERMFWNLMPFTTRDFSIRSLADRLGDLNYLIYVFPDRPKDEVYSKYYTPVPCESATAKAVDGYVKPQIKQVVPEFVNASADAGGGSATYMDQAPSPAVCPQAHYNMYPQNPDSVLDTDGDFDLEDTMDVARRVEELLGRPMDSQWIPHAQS
Protocol: as §1

[3] = Solubility as observed during synthesis / stock preparation; assay type: physicochemical; conditions: remark on synthesis

Row | SMILES | Ki [1] [µM] | IC50 [1] [µM] | Ki [2] [µM] | IC50 [2] [µM] | inhibition at 100 µM [1] [%] | increase of activity against STAT5a relative to resorcinol bisphosphate (1) ([1]; ratio of Ki values) [fold] | increase of activity against STAT5b relative to resorcinol bisphosphate (1) ([2]; ratio of Ki values) [fold] | solubility of the final product [3] | inhibition at 100 µM ([2]; 100 µM, read-out: maximum inhibition at 100 µM (STAT5b)) [%]
1 | O=P(O)(O)Oc1cccc(OP(=O)(O)O)c1 [compound 1, 1,3-Phenylene bis(dihydrogen phosphate)] | 23.3 ± 4.9 | 47.2 ± 9.9 | 20.4 ± 0.7 | 41.6 ± 1.4 |  |  |  |  | 
2 | CC(=O)NCc1ccc(OP(=O)(O)O)cc1OP(=O)(O)O [compound 2] |  |  | 42.1 ± 1.6 | 85.7 ± 3.2 | 50 ± 3 |  |  |  | 
3 | CC(=O)NCc1cc(OP(=O)(O)O)cc(OP(=O)(O)O)c1 [compound 3] | 36.4 ± 3.8 | 73.8 ± 7.7 | 18.7 ± 0.8 | 38.1 ± 1.6 |  |  |  |  | 
4 | O=C(COc1ccc(C(=O)Nc2ccc(Oc3ccccc3)cc2)cc1)NCc1cc(OP(=O)(O)O)cc(OP(=O)(O)O)c1 [compound 4] | 2.5 ± 0.5 | 5.2 ± 1 | 0.9 ± 0.1 | 1.9 ± 0.3 |  | 9 | 23 | limited solubility | 
5 | O=P(O)(O)Oc1ccc(F)c(OP(=O)(O)O)c1 [compound 6] | 29.4 ± 0.6 | 59.4 ± 1.2 | 27.4 ± 2.8 | 55.8 ± 5.6 |  |  |  |  | 
6 | O=P(O)(O)Oc1cccc(OP(=O)(O)O)c1F [compound 7] | 10.8 ± 0.5 | 21.8 ± 0.9 | 7.6 ± 0.4 | 15.5 ± 0.8 |  |  |  |  | 
7 | O=P(O)(O)Cc1cccc(CP(=O)(O)O)c1F [compound 8] |  |  |  |  | 12 ± 3 |  |  |  | 14 ± 1
8 | O=P(O)(O)C(F)(F)c1cccc(C(F)(F)P(=O)(O)O)c1F [compound 9] | 15 ± 0.6 | 30.7 ± 1.3 | 18.9 ± 1.5 | 38.4 ± 3 |  |  |  |  | 
